US20050011012A1, “Multifunctional antimicrobial dyes” (Regents of the University of California, priority 2003, published 2005)
Where two headings read alike, the source gives them in different places.

Columns and labels:
Escherichia coli = conditions: pH 3; for Antimicrobial efficacy of treated fabric, E. coli: Orlon treated with 1 mMol/L compound, 10^5~10^6 CFU/mL; for Reduction percentage of E. coli: Orlon treated with 1 mMol/L dye
Protocol: (§1) The dyeing of acrylic fabrics follows a traditional exhaustion dyeing procedure (Munn, The dyeing of synthetic-polymer and acetate fibres, England: Dyers Company Publications Trust (1979)). Dye solutions were prepared with the QAS-dyes of the present invention, sodium sulfate (2 g/L), and Triton X-100 (0.05%). The pH of the dyeing bath was adjusted to 3 by buffer solutions containing sulfuric acid, sodium acetate, and acetic acid. The bath ratio was kept at 1:50. The Orlon fabrics were immersed into the dyeing bath at initial dyeing temperatures for a certain period of time, and then fixed at 100° C. for another period of time to elevate the interactions between the fabrics and the QAS-dyes.
(§2) The antimicrobial activities of the treated Orlon fabrics were evaluated against Escherichia coli (E. coli, Gram-negative) and Staphylococcus aureus (S. aureus, Gram-positive) according to AATCC test method 100-1999. In this method, disposable petri dishes containing fabric swatches weighing about 1 g were challenged with 1.0±0.1 mL of bacteria inoculum. After a certain period of contact time, the challenged fabric swatches were transferred to 250 mL containers with 100 mL of sterilized water, and the resultant supernatant was diluted 10^1, 10^2, 10^3, and 10^4 times. Then, 100 μL of each dilution was placed onto nutrient agar and incubated at 37° C. for 18 hours. The same procedure was applied to an untreated Orlon fabric swatch as a control. Finally, viable bacteria colonies on the agar plate were counted, and the amount of bacterial reduction was calculated using Eq. (2): Reduction percentage(%)=(A-B)/A×100%, (2) where A represents the number of bacterial colonies in the control, and B represents the number of bacterial colonies in the treated Orlon fabrics.
(§3) The surface resistivity of the treated fabrics was measured by a portable surface resistivity/resistance meter purchase from Monroe Electronics, Inc (Model 272A). The visual color yields of the dyed fabrics were measured by GretagMacbeth™ Color-Eye® 7000A spectrophotometer. The visual color yields of the fabrics were expressed by K/S values, which were derived from the reflectance measurement. The treated fabric was washed in a Launder-Ometer® according to AATCC Test Method 61-2001 to evaluate the wash durability of the treated fabrics. In this method, one cycle of a Launder-Ometer wash is equivalent to five machine washes using a home laundry machine.

Staphylococcus aureus = conditions: Orlon treated with 1 mMol/L compound, pH 3, 10^5~10^6 CFU/mL, contact time 6 hrs
Protocol: as §1, §2, §3

[1] = DSC, 10° C./min, nitrogen
Protocol: Thermal stability analysis: Thermal analyses of the QAS-dyes shown in FIG. 2B were performed using a differential scanning calorimeter (DSC) (Shimadzu DSC-50) and a thermal gravimetric analyzer (TGA) (Shimadzu TGA-50). The dye samples were heated at 10° C./min. and nitrogen gas was chosen as the atmosphere.

[2] = for Relative hydrolytic stability among mono-QAS substituted dyes: acidic conditions, 100° C.
Protocol: Hydrolytic stability analysis: The dyes were dissolved in aqueous solutions at a concentration of 0.4-1 mMol/L, and the solutions were adjusted to various pH values by using sulfuric acid, acetic acid, sodium acetate, sodium bicarbonate, and/or sodium carbonate. The solutions were heated to the required temperatures. At different time intervals, solution samples were taken and measured by a HITACHI U-2000 spectrophotometer to obtain the UV-vis adsorption spectra. The results were compared with the spectra of original dye solutions to determine the stability of the dyes.
After hydrolysis, the precipitates formed in the dye solutions were filtered and thoroughly washed with deionized water. The resultant precipitates were recrystallized using acetone for NMR analysis. NMR spectra were recorded on a Varian Inova 400 spectrometer. The residual filtrate was extracted by chloroform, and the aqueous part was dried under vacuum at room temperature and analyzed by NMR.

Row | Structure (SMILES) | Antimicrobial efficacy of treated fabric, E. coli (Escherichia coli; 0 washes, contact time 6 hrs) | Antimicrobial efficacy of treated fabric, E. coli (Escherichia coli; 5 washes, contact time 6 hrs) | Antimicrobial efficacy of treated fabric, E. coli (Escherichia coli; 10 washes, contact time 6 hrs) | Antimicrobial efficacy of treated fabric, E. coli (Escherichia coli; 20 washes, contact time 6 hrs) | Antimicrobial efficacy of treated fabric, S. aureus (Staphylococcus aureus; 0 washes) | Antimicrobial efficacy of treated fabric, S. aureus (Staphylococcus aureus; 5 washes) | Antimicrobial efficacy of treated fabric, S. aureus (Staphylococcus aureus; 10 washes) | Antimicrobial efficacy of treated fabric, S. aureus (Staphylococcus aureus; 20 washes) | Temperature up to which no obvious changes are observed (dyes stable below) [1] | Relative hydrolytic stability among mono-QAS substituted dyes [2] | also measured
1 | CCCC[N+](C)(C)CC(=O)Nc1ccc(NC(=O)C[N+](C)(C)CCCC)c2c1C(=O)c1ccccc1C2=O.[Cl-].[Cl-] [bi-4] | 97.1% | 37.5% | 0% | 0% | 87.5% | 36.4% | 0% | 0% |  |  | 
2 | CCCCCCCC[N+](C)(C)CC(=O)Nc1ccc(NC(=O)C[N+](C)(C)CCCCCCCC)c2c1C(=O)c1ccccc1C2=O.[Cl-].[Cl-] [bi-8] | 98.6% | 50.0% | 46.7% | 0% | 93.9% | 50.0% | 37.5% | 0% |  |  | 
3 | CCCCCCCCCCCC[N+](C)(C)CC(=O)Nc1ccc(NC(=O)C[N+](C)(C)CCCCCCCCCCCC)c2c1C(=O)c1ccccc1C2=O.[Cl-].[Cl-] [bi-12] | 99.9% | 99.3% | 60.0% | 0% | 99.9% | 81.8% | 45.5% | 0% |  |  | Reduction percentage of E. coli (Escherichia coli; E. coli 10^5~10^6 CFU/mL, contact time 3 hrs): 93.3%; Reduction percentage of E. coli (Escherichia coli; E. coli 10^5~10^6 CFU/mL, contact time 6 hrs): 99.9%; Reduction percentage of E. coli (Escherichia coli; E. coli 10^5~10^6 CFU/mL, contact time 9 hrs): 93.3%; Reduction percentage of E. coli (Escherichia coli; E. coli 10^5~10^6 CFU/mL, contact time 12 hrs): 66.7%; Reduction percentage of E. coli (Escherichia coli; E. coli 10^6~10^7 CFU/mL, contact time 3 hrs): 92.5%; Reduction percentage of E. coli (Escherichia coli; E. coli 10^6~10^7 CFU/mL, contact time 6 hrs): 95.8%; Reduction percentage of E. coli (Escherichia coli; E. coli 10^6~10^7 CFU/mL, contact time 9 hrs): 83.3%; Reduction percentage of E. coli (Escherichia coli; E. coli 10^6~10^7 CFU/mL, contact time 12 hrs): 50%; Reduction percentage of E. coli (Escherichia coli; E. coli 10^7~10^8 CFU/mL, contact time 3 hrs): 86.7%; Reduction percentage of E. coli (Escherichia coli; E. coli 10^7~10^8 CFU/mL, contact time 6 hrs): 0%; Reduction percentage of E. coli (Escherichia coli; E. coli 10^7~10^8 CFU/mL, contact time 9 hrs): 0%; Reduction percentage of E. coli (Escherichia coli; E. coli 10^7~10^8 CFU/mL, contact time 12 hrs): 0%
4 | CCCC[N+](C)(C)CC(=O)Nc1cccc2c1C(=O)c1ccccc1C2=O.[Cl-] [m-4] | 95.7% | 44.0% | 0% | 0% | 86.4% | 50.0% | 0% | 0% | up to 190 °C |  | Time the dye solution was stable (almost unchanged visible spectra) ([2]; 0.4 mMol/L, pH 5, 100° C.): about six
5 | CCCCCCCC[N+](C)(C)CC(=O)Nc1cccc2c1C(=O)c1ccccc1C2=O.[Cl-] [m-8] | 98.6% | 44.0% | 0% | 0% | 92.4% | 37.5% | 0% | 0% | up to 190 °C | lower stability | 
6 | CCCCCCCCCCCC[N+](C)(C)CC(=O)Nc1cccc2c1C(=O)c1ccccc1C2=O.[Cl-] [m-12] | 99.9% | 81.3% | 0% | 0% | 99.9% | 75.0% | 0% | 0% | up to 190 °C | lowest stability | 
